Data from PubChem BioAssay AID1963443 (Molecular Pharmacology Branch, DTP, NCI, 2024).
Values joined by “and” are separate entries in the source; they are usually repeats but may differ in a detail not shown here. Equal entries are not always repeated.

Test system: MDA-MB-231 complex spheroids, growth inhibition
Assay: Anticancer human tumor MDA-MB-231 cell line growth inhibition [Asc];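 also: spheroids exposed to compounds for 7 days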
Details: for viability, T/C: stronger effect = lower value
Method: Multicellular complex tumor spheroid response to apoptosis pathway targeting inhibitors Alrizomadlin, Pelcitoclax, and Dasminapant in combination with a variety of drugs and investigational agents in selected tumor cell lines
The MDM2 inhibitor alrizomadlin, the Bcl-2/Bcl-xL inhibitor pelcitoclax, and the IAPs inhibitor dasminapant were evaluated both individually and in combination with standard of care and investigational anticancer small molecules within a complex spheroid model of solid tumors. . Complex spheroids include a stromal component modeled by human endothelial cells (HUVEC) and fibroblasts modeled by human mesenchymal stem cells (MSCs). The concentration ranges selected for each drug and investigational agent were based upon clinically achievable concentrations if the clinical Cmax of the agent was known.
Compounds. The drugs and investigational agents: alrizomadlin (APG-115; NSC831270), pelcitoclax (APG-1252; NSC835773), dasminapant (APG-1387;NSC834197), TAK-243 (NSC785004), copanlisib (NSC809693), olaparib (NSC753686), talazoparib (NSC767125), cobimetinib (NSC 768068), eltanexor (KPT-8602, NSC 794443), abemaciclib (NSC 768073), sotorasib (NSC818433), adagrasib (NSC 831453), MRTX-1133 (NSC 836407), Iadademestat (ORY1001, NSC 806812), and RMC-4630 (NSC839698), were obtained from the NCI Developmental Therapeutics Program Chemical Repository. The FDA-approved anticancer drug set is available from the Developmental Therapeutics Program at https://dtp.cancer.gov/organization/dscb/obtaining/available plates.htm. […] The stock solutions were prepared in dimethyl sulfoxide (DMSO, Sigma-Aldrich, St. Louis, MO, cat. D2650) at 800-fold the tested concentration and stored at -70 degrees C prior to their use. All drugs and investigational agents were tested over a range starting from a high concentration at or near the clinical Cmax and decreasing in half-log increments. If the clinical Cmax for an agent had not been determined, the highest concentration tested was 10 microM.
The patient-derived cancer (PDC) cell lines include five colon adenocarcinomas: 186277-243-T-J2-PDC, 616215-338-R-J1-PDC, 439559-082-T-J2-PDC, 463943-066-T-J2-PDC, and 519858-162-T-J1-PDC; three pancreatic carcinomas: 323965-272-R-J2-PDC, 521955-158-R6-J3-PDC, and 521955-158-R2-J5-PDC; two uterine sarcomas: 327498-152-R-J2-PDC and 993429-296-R-J1-PDC; two rhabdomyosarcomas: 755483-174-R-J1-PDC and 772245-204-R-J1-PDC; two soft tissue sarcomas: 126254-015-R-J1-PDC and 494315-158-R-J1-PDC; two malignant fibrous histiocytomas: 317291-083-R-J1-PDC and 596521-263-R-J1-PDC; two breast carcinomas: 171881-019-R-J1-PDC and 885512-296-R-J2-PDC; and one ovarian carcinoma: 6556581-035-R-J-PDC were obtained from the NCI PDMR, (https://pdmr.cancer.gov). The established cell lines HSSY-2 synovial sarcoma (RRID:CVCL 8719), SYO-1 synovial sarcoma (RRID:CVCL_7146), MPNST malignant peripheral neural sheath tumor were obtained from the Sloan Kettering Institute. The following established cell lines were purchased from the American Type Culture Collection (ATCC, Manassas, VA), Sor the received from the NCI repository:, PANC-1 pancreatic carcinoma (CRL-1469, RRID:CVCL_0480), OVCAR-5 ovarian carcinoma (RRID:CVCL_1628), OVCAR-8 ovarian carcinoma (RRID:CVCL_1629), , MCF-7 breast carcinoma (CRL-12584, RRID:CVCL_0031), MDA-MB-231 breast carcinoma (CRL-12532, RRID:CVCL_0062), NCI-H1876 small cell lung carcinoma (CRL-5902, RRID:CVCL_1503), NCI-H510A small cell lung carcinoma (HTB-184, RRID:CVCL_1565), NCI-H1417 (CRL-5869, RRID:CVCL_1469), and NCI-H196 small cell lung carcinoma (CRL-5823, RRID:CVCL_1509). Dr. Peter Houghton (Greehey Children's Cancer Research Institute, University of Texas Health Science Center, San Antonio, TX) provided Rh-18 rhabdomyosarcoma (RRID:CVCL_1659). Pooled donor human umbilical vein endothelial cells (HUVEC, Lonza, cat. CC-2519) and human mesenchymal stem cells (hMSC, Lonza, cat. PT-2501) were purchased from Lonza (Walkersville, MD).
Cell Culture. […]

[1] = curve of first compound, second compound 0.1 µM
[2] = curve of first compound, second compound 0.316 µM
[3] = curve of first compound, second compound 1 µM
[4] = second compound 0.1 µM, first compound 0.000316 µM
[5] = second compound 0.1 µM, first compound 0.001 µM
[6] = second compound 0.1 µM, first compound 0.00316 µM
[7] = second compound 0.1 µM, first compound 0.01 µM
[8] = second compound 0.1 µM, first compound 0.0316 µM
[9] = second compound 0.1 µM, first compound 0.1 µM
[10] = second compound 0.316 µM, first compound 0.000316 µM
[11] = second compound 0.316 µM, first compound 0.001 µM
[12] = second compound 0.316 µM, first compound 0.00316 µM
[13] = second compound 0.316 µM, first compound 0.01 µM
[14] = second compound 0.316 µM, first compound 0.0316 µM
[15] = second compound 0.316 µM, first compound 0.1 µM
[16] = second compound 1 µM, first compound 0.000316 µM
[17] = second compound 1 µM, first compound 0.001 µM
[18] = second compound 1 µM, first compound 0.00316 µM
[19] = second compound 1 µM, first compound 0.01 µM
[20] = second compound 1 µM, first compound 0.0316 µM
[21] = second compound 1 µM, first compound 0.1 µM

Row | Compound | IC50 [1] [nM] | IC50 [2] [nM] | IC50 [3] [nM] | viability, T/C [4] [%] | viability, T/C [5] [%] | viability, T/C [6] [%] | viability, T/C [7] [%] | viability, T/C [8] [%] | viability, T/C [9] [%] | viability, T/C [10] [%] | viability, T/C [11] [%] | viability, T/C [12] [%] | viability, T/C [13] [%] | viability, T/C [14] [%] | viability, T/C [15] [%] | viability, T/C [16] [%] | viability, T/C [17] [%] | viability, T/C [18] [%] | viability, T/C [19] [%] | viability, T/C [20] [%] | further results
1 | Cn1ncnc1[C@H]1c2n[nH]c(=O)c3cc(F)cc(c23)N[C@@H]1c1ccc(F)cc1 + Cc1c(S(C)(=O)=O)c(-c2cc(F)cc(N3CCN(c4ccc(NS(=O)(=O)c5ccc(NC(CCN6CCC(C(=O)OCCCP(=O)(O)O)CC6)CSc6ccccc6)c(S(=O)(=O)C(F)(F)F)c5)cc4)CC3)c2)c(-c2ccc(Cl)cc2)n1C(C)C | > 100 | > 100 | > 100 | 104 | 95.4 | 107 | 92.3 | 87.8 | 87.2 | 103 | 105 | 95.9 | 90.6 | 80.7 | 81 | 101 | 107 | 105 | 89.5 | 82.3 | IC50 (curve of first compound, second compound 3.16 µM): > 100 nM; IC50 (curve of first compound, second compound 10 µM): > 100 nM; viability, T/C [21]: 75.7%; viability, T/C (second compound 3.16 µM, first compound 0.000316 µM): 101%; viability, T/C (second compound 3.16 µM, first compound 0.001 µM): 95.5%; viability, T/C (second compound 3.16 µM, first compound 0.00316 µM): 82.2%; viability, T/C (second compound 3.16 µM, first compound 0.01 µM): 83.7%; viability, T/C (second compound 3.16 µM, first compound 0.0316 µM): 68.7%; viability, T/C (second compound 3.16 µM, first compound 0.1 µM): 63.1%; viability, T/C (second compound 10 µM, first compound 0.000316 µM): 115%; viability, T/C (second compound 10 µM, first compound 0.001 µM): 108%; viability, T/C (second compound 10 µM, first compound 0.00316 µM): 98.5%; viability, T/C (second compound 10 µM, first compound 0.01 µM): 91.3%; viability, T/C (second compound 10 µM, first compound 0.0316 µM): 74.4%; viability, T/C (second compound 10 µM, first compound 0.1 µM): 65%
2 | C=CC(=O)N1CCN(c2nc(=O)n(-c3c(C)ccnc3C(C)C)c3nc(-c4c(O)cccc4F)c(F)cc23)C(C)C1 (configuration not stated) | – | – | – | – | – | – | – | – | – | – | – | – | – | – | – | – | – | – | – | – | viability, T/C (compound 0.0316 µM): 101% and 102% and 103%; viability, T/C (compound 0.1 µM): 104% and 105% and 103%; viability, T/C (compound 0.316 µM): 106% (2×) and 107%; viability, T/C (compound 1 µM): 107% and 109% and 111%; viability, T/C (compound 3.16 µM): 119% and 117% and 113%; viability, T/C (compound 10 µM): 119% and 121% and 110%; IC50 (curve of compound): > 10000 nM
3 | NC1CCC(NC2CC2c2ccccc2)CC1 (configuration not stated) + CNC(C)C(=O)NC1CN(S(=O)(=O)c2cccc(S(=O)(=O)N3CCC4CCC(C(=O)NC(c5ccccc5)c5ccccc5)N4C(=O)C(NC(=O)C(C)NC)C3)c2)CCC2CCC(C(=O)NC(c3ccccc3)c3ccccc3)N2C1=O | < 0.316 | < 0.316 | < 0.316 | 2.48 | 2.67 | 3.07 | 2.19 | 2.11 | 2.38 | 1.42 | 3.18 | 2.55 | 0.99 | 1.23 | 0.81 | 1.08 | 1.04 | 1.62 | 0.85 | 0.86 | IC50 (curve of first compound, second compound 0.01 µM): < 0.316 nM; IC50 (curve of first compound, second compound 0.0316 µM): < 0.316 nM; viability, T/C (second compound 0.01 µM, first compound 0.000316 µM): 4.48%; viability, T/C (second compound 0.01 µM, first compound 0.001 µM): 3.37%; viability, T/C (second compound 0.01 µM, first compound 0.00316 µM): 3.36%; viability, T/C (second compound 0.01 µM, first compound 0.01 µM): 4.1%; viability, T/C (second compound 0.01 µM, first compound 0.0316 µM): 4.51%; viability, T/C (second compound 0.01 µM, first compound 0.1 µM): 3.46%; viability, T/C (second compound 0.0316 µM, first compound 0.000316 µM): 1.91%; viability, T/C (second compound 0.0316 µM, first compound 0.001 µM): 3.37%; viability, T/C (second compound 0.0316 µM, first compound 0.00316 µM): 2.61%; viability, T/C (second compound 0.0316 µM, first compound 0.01 µM): 2.96%; viability, T/C (second compound 0.0316 µM, first compound 0.0316 µM): 2.47%; viability, T/C (second compound 0.0316 µM, first compound 0.1 µM): 2.27%; viability, T/C [21]: 0.84%
